The values that follow are results of earlier work, collected in patent EP0199524B1, “Platinum tramine antitumor agents” (ENGELHARD CORPORATION, priority 1985, dated 1986).

The conditions of this data set: literature statement on charged platinum species; cited from earlier work.

On to `N.N.N.N.[Cl][Pt][Cl]` [[Pt(NH₃)₄]Cl₂], for which the antitumor activity result was “completely inactive”.
